Test results as given in US9169213B2, “Method of weight management” (Arena Pharmaceuticals, Inc., priority 2012, dated 2015).
“And” between values parts separate entries of the source, which are not always exact repeats. Identical values can stand only once.

Experiments:
Format in all cases: in vivo, human
[1] = Pooled BLOOM and BLOSSOM Phase 3 studies: Week 52 outcomes by Week 12/Week 24 responder status, patients without T2DM; settings: for Diastolic BP, Week 52 Change from Baseline Mean (SE) / HbA1c, Week 52 Change from Baseline Mean (SE) / Heart Rate, Week 52 Change from Baseline Mean (SE) / Systolic BP, Week 52 Change from Baseline Mean (SE): Without T2DM
Description: APD356-009 (“BLOOM”) was a 104-week, placebo controlled study that assessed the safety and efficacy of lorcaserin 10 mg BID in overweight and obese patients, with concurrent behavior modification. The primary efficacy objective during Year 1 was to evaluate weight loss; the primary objective during Year 2 was to assess the ability of lorcaserin to maintain body weight loss that was achieved during Year 1. At study start, each patient received randomized, double blind treatment assignments for Year 1 and for Year 2 (all patients were given a new randomization number for Year 2 to assure that patients and study personnel remained blinded to treatment assignments). All patients assigned to placebo during Year 1 (50% of randomized population) remained on placebo in Year 2. Patients assigned to lorcaserin during Year 1 were randomly assigned to stay on lorcaserin during Year 2 (⅔ of Year 1 lorcaserin patients) or to switch to placebo (⅓ of Year 1 lorcaserin patients).
APD356-011 (“BLOSSOM”) was a 52-week, placebo controlled study that evaluated the effect of two lorcaserin doses (10 mg BID and 10 mg QD) on categorical and total weight loss with concurrent behavior modification. Patients were randomized in a ratio of 2:1:2 to lorcaserin 10 mg BID, 10 mg QD, or placebo.
(§1) An analysis of early weight loss was performed, at each visit after baseline through Week 24, as a predictor of ultimate weight loss success, as defined by achieving at least about 5% weight loss at 52 weeks, or at least about 10% weight loss at 52 weeks.

[2] = Lorcaserin pivotal phase 3 clinical trial program (NDA summary)
Excerpt: The NDA submission is based on an extensive data package from lorcaserin's clinical development program that includes 18 clinical trials totaling 8,576 patients. […] About two-thirds of patients achieved at least 5% weight loss and over one-third achieved at least 10% weight loss. On average, patients lost 17 to 18 pounds or about 8% of their weight. Secondary endpoints, including body composition, lipids, cardiovascular risk factors and glycemic parameters improved compared to placebo. In addition, heart rate and blood pressure went down. […] Lorcaserin improved quality of life, and there was no signal for depression or suicidal ideation. The only adverse event that exceeded the placebo rate by 5% was generally mild or moderate, transient headache. Based on a normal BMI of 25, patients in the first phase 3 trial lost about one-third of their excess body weight. The average weight loss was 35 pounds or 16% of body weight for the top quartile of patients in the second phase 3 trial.

[3] = BLOOM-DM (APD356-010) Phase 3 study: Week 52 outcomes by Week 12/Week 24 responder status, patients with type 2 diabetes mellitus; settings: for Diastolic BP, Week 52 Change from Baseline Mean (SE) / HbA1c, Week 52 Change from Baseline Mean (SE) / Heart Rate, Week 52 Change from Baseline Mean (SE) / Systolic BP, Week 52 Change from Baseline Mean (SE): With T2DM
Description: APD356-010 (BLOOM-DM) was a 52-week, placebo controlled study that evaluated the effect of two lorcaserin doses (10 mg BID and 10 mg QD) on categorical and total weight loss with concurrent behavior modification in 604 patients with type 2 diabetes mellitus managed with oral hypoglycemic agents. Randomization to the 10 mg once daily group was halted by protocol amendment in order to accelerate enrollment, resulting in final group sizes of 253 (placebo), 95 (lorcaserin QD) and 256 (lorcaserin BID).
as §1
Table 3 and Table 4 provide the sensitivity, specificity, positive predicted value (PPV) and negative predictive value (NPV) at Weeks 12 and 24 for at least about 5% and at least about 10% weight loss at Week 52 in different studies. The rounded percent weight loss at Week 12 for at least 5% and at least about 10% weight loss at Week 52 are about 5% and about 6%, respectively. Using the about 6% weight loss at Week 12 as a criterion enhances the PPV for both about 5% and about 10% categorical weight loss at Week 52, but at the expense of excluding about 10% and about 4% more of the about 5% categorical responders at Week 52 in patients without and with diabetes, respectively, based upon NPV. The rounded optimal thresholds at Week 24 for at least about 5% and at least about 10% weight loss at Week 52 are about 6% and about 9%, respectively. Using the 9% weight loss criterion at Week 24 enhances the PPV for both about 5% and about 10% categorical weight loss at Week 52, but at the expense of excluding about 19% and about 9% more of the about 5% categorical responders at Week 52 in patients without and with diabetes, respectively, based upon NPV. As described below, if at least about a 5% weight loss criterion is applied, patients achieving this milestone will achieve an average of about 10.8% weight loss in patients without diabetes and about 9.1% weight loss in patients with diabetes at Week 52.
Tables 6 and 7, below, present weight loss, vital sign, and glycemic changes at Week 52 in pooled patients without diabetes, patients with T2DM, and pooled patients with impaired fasting glucose (IFG; ≧100 mg/dL) who were Week 12 responders.

[4] = Week 12 Non-responder (<5%), Completers Population, 10 mg BID
[5] = Week 12 Non-responder (<5%), MITT with LOCF, 10 mg BID
[6] = Week 12 Responder (≧5% weight loss), Completers Population, 10 mg BID
[7] = Week 12 Responder (≧5% weight loss), MITT with LOCF, 10 mg BID
[8] = Week 12 responders without diabetes
[9] = Week 12 Nonresponder (5%), 10 mg BID
[10] = Week 12 Responder (5%), 10 mg BID
[11] = of patients with observed Week 12 data, without diabetes, 10 mg BID, listed as Lorcaserin
[12] = Week 12 Responder (≧5%), Completers Population, 10 mg BID
[13] = of patients with observed Week 12 data, type 2 diabetes, 10 mg BID

With `C[C@H]1CNCCc2ccc(Cl)cc21` [lorcaserin, (R)-8-chloro-1-methyl-2,3,4,5-tetrahydro-1H-3-benzazepine] the “Week 52 Weight 5% Responder” value [1, 4] was 35.9%, the “Week 52 Weight 10% Responder” value [1, 4] was 7.4% and the “Week 52 Weight Mean (SE) Change from Baseline, kg” value (“Week 52 Weight Mean (SE) Change” for short) [1, 4] was −3.50 (0.18) kg. The “Week 52 Weight Mean (SE) Percent Change from Baseline, %” value [1, 4] was −3.44 (0.18) %, the “Week 52 Weight 10% Responder” value [1, 5] was 4.7% and the “Week 52 Weight Mean (SE) Change” value [1, 5] was −2.76 (0.12) kg. The “Week 52 Weight Mean (SE) Percent Change from Baseline, %” value [1, 5] was −2.73 (0.12) %, the “Week 52 Weight 5% Responder” value [1, 6] was 85.8% and the “Week 52 Weight 10% Responder” value [1, 6] was 55.9%. For the same compound, the “Week 52 Weight Mean (SE) Change” value [1, 6] was −11.31 (0.21) kg, the “Week 52 Weight Mean (SE) Percent Change from Baseline, %” value [1, 6] was −11.52 (0.21) % and the “Week 52 Weight 10% Responder” value [1, 7] was 49.8%. For the same compound, the “Week 52 Weight Mean (SE) Change” value [1, 7] was −10.63 (0.18) kg, the “Week 52 Weight Mean (SE) Percent Change from Baseline, %” value [1, 7] was −10.84 (0.18) % and the “Week 52 reduction in diastolic blood pressure” value [1, 8] was 2.5 mmHg. The “Week 52 reduction in heart rate” value [1, 8] was 2.5 BPM, the “Week 52 reduction in systolic blood pressure” value [1, 8] was 3.4 mmHg and the “Diastolic BP, Week 52 Change from Baseline Mean (SE)” value (“Diastolic BP, Week 52 Change … (SE)” for short) [1, 9] was −1.02 (0.25). For the same compound, the “HbA1c, Week 52 Change from Baseline Mean (SE)” value (“HbA1c, Week 52 Change … (SE)” below) [1, 9] was −0.05 (0.01), the “Heart Rate, Week 52 Change from Baseline Mean (SE)” value (“Heart Rate, Week 52 Change … (SE)” below) [1, 9] was −0.29 (0.26) and the “Systolic BP, Week 52 Change from Baseline Mean (SE)” value (“Systolic BP, Week 52 Change … (SE)” for short) [1, 9] was −0.82 (0.34). For the same compound, the “Diastolic BP, Week 52 Change … (SE)” value [1, 10] was −2.52 (0.25), the “HbA1c, Week 52 Change … (SE)” value [1, 10] was −0.18 (0.01) and the “Heart Rate, Week 52 Change … (SE)” value [1, 10] was −2.45 (0.26). For the same compound, the “Systolic BP, Week 52 Change … (SE)” value [1, 10] was −3.39 (0.34), the “Week 12 Non-Responder (<5% wt loss), percentage of patients” value ([1]; of patients with observed Week 12 data, without diabetes, 10 mg BID) was 1,286/2,537(50.7%) and the “Week 12 Non-Responder (<5% wt loss), percentage of patients” value [1, 11] was 1286 (50.7%). For the same compound, the “Week 12 Responder (at least 5% weight loss at Week 12), percentage of patients” value [1, 11] was 1251 (49.3%), the “average weight loss at Week 52” value ([1]; patients without diabetes achieving at least about 5% weight loss at Week 12) was “about 10.8%” and the “risk of cardiac valvulopathy” value ([2]; phase 3 program) was “did not increase”. The “average weight lost, of their weight” value ([2]; pivotal phase 3 program) was “about 8%”, the “average weight loss of body weight, top quartile of patients” value ([2]; second phase 3 trial) was 16% and the “average weight loss, top quartile of patients” value ([2]; second phase 3 trial) was 35 pounds. The “Week 52 Weight 5% Responder” value [3, 4] was 29.0%, the “Week 52 Weight 10% Responder” value [3, 4] was 10.0% and the “Week 52 Weight Mean (SE) Change” value [3, 4] was −3.45 (0.44) kg. For the same compound, the “Week 52 Weight Mean (SE) Percent Change from Baseline, %” value [3, 4] was −3.36 (0.42) %, the “Week 52 Weight 5% Responder” value [3, 5] was 25.2% and the “Week 52 Weight 10% Responder” value [3, 5] was 8.6%. For the same compound, the “Week 52 Weight Mean (SE) Change” value [3, 5] was −3.20 (0.36) kg, the “Week 52 Weight Mean (SE) Percent Change from Baseline, %” value [3, 5] was −3.13 (0.35) % and the “Week 52 Weight 5% Responder” value [3, 7] was 71% and 70.5%. For the same compound, the “Week 52 Weight 10% Responder” value [3, 7] was 36% and 35.9%, the “Week 52 Weight Mean (SE) Change” value [3, 7] was −9.26 (0.77) kg and the “Week 52 Weight Mean (SE) Percent Change from Baseline, %” value [3, 7] was −9.07 (0.70) %. For the same compound, the “Week 52 Weight 5% Responder” value [3, 12] was 70.8%, the “Week 52 Weight 10% Responder” value [3, 12] was 40.0% and the “Week 52 Weight Mean (SE) Change” value [3, 12] was −9.77 (0.89) kg. For the same compound, the “Week 52 Weight Mean (SE) Percent Change from Baseline, %” value [3, 12] was −9.49 (0.80) %, the “change in HbA1c at Week 52” value ([3]; Week 12 non-responders with type 2 diabetes) was −0.84% and the “Week 52 reduction in diastolic blood pressure” value ([3]; Week 12 responders with T2DM) was 1.9 mmHg. The “Week 52 reduction in heart rate” value ([3]; Week 12 responders with T2DM) was 3.2 BPM, the “Week 52 reduction in systolic blood pressure” value ([3]; Week 12 responders with T2DM) was 2.6 mmHg and the “A1C W52 Change” value ([3]; Week 12 responders, patients with T2DM, 10 mg BID) was −1.2%. The “Diastolic BP, Week 52 Change … (SE)” value [3, 9] was −1.07 (0.86), the “HbA1c, Week 52 Change … (SE)” value [3, 9] was −0.84 (0.09) and the “Heart Rate, Week 52 Change … (SE)” value [3, 9] was −0.87 (0.73). The “Systolic BP, Week 52 Change … (SE)” value [3, 9] was −0.55 (1.11), the “Diastolic BP, Week 52 Change … (SE)” value [3, 10] was −1.91 (1.01) and the “HbA1c, Week 52 Change … (SE)” value [3, 10] was −1.20 (0.11). The “Heart Rate, Week 52 Change … (SE)” value [3, 10] was −3.24 (1.21), the “Systolic BP, Week 52 Change … (SE)” value [3, 10] was −2.59 (1.73) and the “Week 12 Non-Responder, percentage of patients” value [3, 13] was 139 (64.1%). For the same compound, the “Week 12 Responder (at least 5% weight loss at Week 12), percentage of patients” value [3, 13] was 35.9%, the “Week 12 Responder (at least 5% weight loss at Week 12), percentage of patients” value ([3]; of patients with observed Week 12 data, type 2 diabetes, 10 mg BID, listed as Lorcaserin) was 78 (35.9%) and the “average weight loss at Week 52” value ([3]; patients with diabetes achieving at least about 5% weight loss at Week 12) was “about 9.1%”.
